What all share (assay): NCI-60 cell line screen, 48 h
In experiment [1] the test system is SF-539 CNS.
For experiment [2], the system named is SNB-19 CNS.
Experiment [3] has as its system MCF7 breast.
Experiment [4] has as its system CAKI-1 renal.
Experiment [5] relates to MDA-MB-231 breast.
Experiment [6] deals with KM12 colon.
Experiment [7] deals with HL-60(TB) leukemia.
Experiment [8] deals with HOP-62 NSCLC.
In experiment [9] the test system is K-562 leukemia.
The subject of experiment [10] is NCI/ADR-RES ovarian.
Experiment [11] has as its system UO-31 renal.
In experiment [12] the test system is RXF 393 renal.
The test system of experiment [13] is SK-MEL-2 melanoma.
In experiment [14] the test system is OVCAR-4 ovarian.

Structures are written as SMILES.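 Each compound was tested at five concentrations against cells in 96-well plates for 48 hours. Definition used: TGI = concentration required for complete inhibition of growth.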

As to `C=C(C)C#CC(O)(C(=O)OC1CCN(C)CC1)C(C)C` (stereo not given), the TGI in experiment [1], in experiment [2], in [3], in experiment [4], in experiment [5] and in [6] was over 100 µM in each case. The TGI in [7] is over 100 µM; in [8], over 100 µM; in experiment [9], over 100 µM; in [10], 85.6 µM; in experiment [11], over 100 µM; in experiment [12], over 100 µM.
As to `Cc1cccc(-n2c(C)nc3ccc(NC4OC(CO)C(O)C(O)C4O)cc3c2=O)c1` (stereo not given), the TGI in [13], in [2], in experiment [3], in experiment [4], in [14] and in experiment [5] was over 100 µM each time. Also, the TGI in [6], in experiment [7], in experiment [8], in experiment [9], in [10] and in experiment [11] was over 100 µM each time. Further, the TGI in experiment [12] is over 100 µM.
Turning to `COc1ccc(/C(CCl)=C(\Nc2ccccc2)c2ccc(OC)c(OC)c2)cc1OC`, the TGI in experiment [1], in [13], in experiment [2], in [3], in experiment [4] and in experiment [14] was over 100 µM each time. Moreover, the TGI in experiment [5], in [6], in experiment [7], in [8], in experiment [9] and in [10] was over 100 µM throughout. For the same compound, the TGI in experiment [11] and in experiment [12] was over 100 µM each time.
For `CSc1c(C#N)c(O)n(-c2ccc(C)cc2)c(=O)c1C#N`, the TGI in [1], in experiment [13], in experiment [2], in experiment [3], in experiment [4] and in experiment [14] was over 100 µM in each case. Also, the TGI in experiment [5], in experiment [6], in experiment [7], in experiment [9], in experiment [10] and in [11] was over 100 µM each time. In experiment [12], this compound had a TGI of over 100 µM.
For `COc1cc(O)c2c(=O)c(OC)c(-c3ccc4c(c3)OCO4)oc2c1`, the TGI in [1] is over 74.9 µM; in experiment [13], over 100 µM; in [2], over 84.1 µM; in [3], over 100 µM; in experiment [4], over 100 µM; in experiment [5], over 77.4 µM. Besides, the TGI in experiment [6] was over 100 µM; in experiment [7] it was over 100 µM; in [8], over 63.1 µM; in [9], over 100 µM; in experiment [10], over 100 µM; in [11], over 100 µM. The compound also displayed a TGI in [12] of over 100 µM.
Take `CCOC(=O)N1CCN(c2c(C)nc(C)[nH]c2=O)CC1`: the TGI in experiment [1], in experiment [2], in experiment [3], in [4], in [14] and in experiment [5] was over 100 µM in each case. Also, the TGI in experiment [6], in experiment [7], in experiment [8], in experiment [9], in experiment [10] and in [11] was over 100 µM each time. The TGI in experiment [12] was over 100 µM.
Regarding `CN1CCC(CNC(=O)CCCCCCCCC(=O)NCC2(c3ccccc3)CCN(C)CC2)(c2ccccc2)CC1`, the TGI in experiment [1] was 48.8 µM; in experiment [13], over 100 µM; in experiment [2], over 100 µM; in experiment [3], over 100 µM; in [14], over 100 µM; in [5], over 100 µM. Besides, the TGI in experiment [6], in experiment [7], in [8], in experiment [9], in experiment [10] and in experiment [11] was over 100 µM throughout. Further, the TGI in [12] is over 100 µM.
As to `COC(=O)C1=C(OC(=O)/C(=C/c2ccc(Cl)cc2Cl)c2ccc(Cl)cc2Cl)C(C(=O)OC)[C@@]2(O)[C@@H](C(=O)OC)[C@H](C)C[C@@H]1[C@@H]2C(=O)OC` (stereo not given in full), the TGI in [1], in experiment [13], in experiment [2], in experiment [3], in experiment [4] and in [14] was over 100 µM in each case. Further, the TGI in experiment [5], in experiment [6], in experiment [7], in [8], in experiment [9] and in experiment [10] was over 100 µM throughout. The TGI in experiment [11] and in experiment [12] was over 100 µM throughout.
For the compound `CC1CC(C)[C@H](O)C([C@H](O)CC2CC(=O)N(C)C(=O)C2)C1` (stereo not given in full), the TGI in [1], in experiment [13], in experiment [2], in experiment [3], in experiment [4] and in experiment [14] was over 100 µM in each case. Besides, the TGI in experiment [5], in experiment [6], in experiment [7], in experiment [8], in experiment [9] and in experiment [10] was over 100 µM in each case. Further, the TGI in experiment [11] and in experiment [12] was over 100 µM each time.
In the case of `Cc1c(/C=N/NC(=S)Nc2cccc(Cl)c2)c(=O)n(-c2ccccc2)n1C`, the TGI in [1] worked out at 33 µM; in experiment [13], 36.7 µM; in experiment [2] it was 37.1 µM; in experiment [3] it was 62.5 µM; in experiment [4], 25.7 µM; in [14], 40 µM. Also, the TGI in experiment [5] is 43.8 µM; in experiment [6], over 100 µM; in experiment [7], over 100 µM; in experiment [8], 26.9 µM; in experiment [9], 31.5 µM; in experiment [10] it was 33.8 µM. Besides, the values for the TGI in experiment [11] and in experiment [12] were 88.7 µM and 29.5 µM, respectively.
For `CCCCC1Cc2ccccc2-c2n1c1ccccc1[n+]2C` (stereo not given), the TGI in [1] is over 100 µM; in experiment [13], 35.7 µM; in experiment [3], over 100 µM; in experiment [4], over 100 µM; in experiment [14] it was over 100 µM; in experiment [5], over 100 µM. The TGI is over 100 µM in experiment [6]; 22.9 µM in experiment [7]; over 100 µM in experiment [8]; over 100 µM in experiment [9]; over 100 µM in [10]; over 100 µM in [11]. In [12], this compound yielded a TGI of over 100 µM.
Regarding `COc1cc(C2S/C(=C/c3ccccc3)C(=O)N2c2cc(Cl)ccc2Cl)cc(OC)c1OC` (stereo not given), the TGI in experiment [1] is 42.9 µM; in experiment [13] it was over 100 µM; in experiment [2], over 100 µM; in [3] it was over 100 µM; in [4] it was over 100 µM; in [5] it was over 100 µM. The TGI in experiment [6] is 38.8 µM; in experiment [7], over 100 µM; in experiment [8], over 100 µM; in experiment [9], over 100 µM; in [10] it was over 100 µM; in experiment [11], over 100 µM. In [12], this compound returned a TGI of over 100 µM.
Consider `CCC(CC)C(=O)OC[n+]1ccc(-c2c(COC(=O)NC(C)C)c(COC(=O)NC(C)C)c3n2CCC3)cc1`, for which the TGI in [1], in experiment [2], in [3], in experiment [4], in [14] and in experiment [5] was over 100 µM in each case. In addition, the TGI in [7], in [8], in experiment [9], in [10], in experiment [11] and in [12] was over 100 µM each time.
For the compound `OC(CC(CC(O)(C(F)(F)Cl)C(F)(F)Cl)=NNc1ccccc1)(C(F)(F)Cl)C(F)(F)Cl`, the TGI is 8.75 µM in experiment [1]; 3.56 µM in experiment [13]; over 10 µM in experiment [2]; 9.93 µM in experiment [3]; 6.43 µM in experiment [4]; over 10 µM in experiment [14]. The TGI in [5] was 6.63 µM; in experiment [6], 7.54 µM; in experiment [7] it was over 10 µM; in experiment [8] it was 7.95 µM; in [9], over 10 µM; in [10], 8.62 µM. The TGI in experiment [12] is 6.82 µM.
In the case of `Cc1nc(Cl)c2sc(=S)n(-c3ccc(F)cc3)c2n1`, the TGI in experiment [13] amounted to 25.4 µM; in experiment [2], 5.06 µM; in experiment [3], 13.2 µM; in experiment [4] it was 3.11 µM; in experiment [14], 31.4 µM; in experiment [5], 20.7 µM. The TGI in experiment [6] was 25.3 µM; in [7], 43.2 µM; in experiment [8], 9.73 µM; in experiment [9], over 100 µM; in experiment [10], 25.5 µM; in experiment [11], 3.17 µM. In experiment [12], this compound had a TGI of 21.1 µM.
Consider `Oc1ccc(Cl)cc1-c1[nH]c(=S)nc(-c2ccccc2)c1Cl`, for which the TGI in experiment [13] is over 100 µM; in experiment [2], over 100 µM; in [3], over 100 µM; in experiment [4], over 100 µM; in experiment [14] it was over 100 µM; in experiment [5] it was 97.2 µM. Further, the TGI in [6] is over 100 µM; in experiment [7], over 100 µM; in [8] it was over 84.9 µM; in experiment [9], over 100 µM; in experiment [10], over 100 µM; in experiment [11], over 100 µM. Further, the TGI in experiment [12] was over 100 µM.
`Cn1c(NN)nc(-c2ccc([N+](=O)[O-])cc2)c(C#N)c1=O`: the TGI amounted to 41.3 µM in experiment [13]; 26.3 µM in experiment [2]; 31.9 µM in [3]; 61.6 µM in experiment [4]; 30.8 µM in [14]; 28.4 µM in [5]. Moreover, the TGI in experiment [6] is 30.1 µM; in experiment [7], over 100 µM; in [8], 27.1 µM; in experiment [9] it was over 100 µM; in experiment [10] it was over 100 µM; in experiment [11] it was 33.8 µM. In experiment [12], the TGI stood at 28 µM.
Consider `COC(=O)c1ccccc1/C=C1/Cc2cccc(C)c2C1=O`, for which the TGI in experiment [1], in experiment [3], in experiment [4], in experiment [14], in experiment [5] and in experiment [6] was over 100 µM each time. The TGI in experiment [7], in [8], in [9], in experiment [10], in experiment [11] and in [12] was over 100 µM throughout.
`CC1=C(C(=O)N[C@@H](Cc2ccccc2)C(=O)O)N2C(=O)[C@@H](NC(=O)[C@@H](N)CC(C)C)[C@H]2SC1`: the TGI in [1], in [13], in experiment [2], in experiment [3], in experiment [4] and in experiment [14] was over 100 µM each time. Moreover, the TGI in experiment [5], in experiment [6], in experiment [7], in experiment [9], in experiment [10] and in experiment [12] was over 100 µM in each case.
In the case of `COc1ccc(OC)c([N+](=O)[O-])c1-c1nc2sccn2c1/C=N/N=C(N)N`, the TGI is over 100 µM in experiment [1]; 93.2 µM in [13]; over 100 µM in experiment [2]; 54.2 µM in [3]; over 100 µM in [4]; over 100 µM in [5]. Also, the TGI in experiment [6] is 81.5 µM; in experiment [7], over 100 µM; in experiment [8], over 100 µM; in experiment [9], over 100 µM; in [10], over 100 µM; in experiment [11] it was over 100 µM. In addition, in experiment [12], the TGI was over 100 µM.

Values taken from PubChem BioAssay (NCI).
